From PubChem BioAssay (NCI)
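Exposure lasted 48 hours, with cells grown in 96-well plates and compounds tested at five concentrations. GI50 is the concentration that inhibits growth by half. The concentration for full growth arrest is given as TGI.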 Where a SMILES comes first, the peptide text is derived from it. The star is where a group is joined. Cbz = O=C(OCc1ccccc1)*; OBn = c1ccc(CO*)cc1

How the values were obtained:
Assay in all cases: growth of human tumour cells (NCI), 48 h
EKVX NSCLC = system: EKVX NSCLC
RXF 393 renal = system: RXF 393 renal
OVCAR-3 ovarian = system: OVCAR-3 ovarian
HCT-15 colon = system: HCT-15 colon
SK-OV-3 ovarian = system: SK-OV-3 ovarian
LOX IMVI melanoma = system: LOX IMVI melanoma
NCI-H23 lung = system: NCI-H23 lung
A549 NSCLC = system: A549 NSCLC
UACC-62 melanoma = system: UACC-62 melanoma
MCF7 breast = system: MCF7 breast

Row | Compound | TGI (EKVX NSCLC) [µM] | TGI (RXF 393 renal) [µM] | TGI (OVCAR-3 ovarian) [µM] | TGI (HCT-15 colon) [µM] | TGI (SK-OV-3 ovarian) [µM] | TGI (LOX IMVI melanoma) [µM] | TGI (NCI-H23 lung) [µM] | TGI (A549 NSCLC) [µM] | TGI (UACC-62 melanoma) [µM] | TGI (MCF7 breast) [µM] | GI50 (EKVX NSCLC) [µM] | GI50 (RXF 393 renal) [µM] | GI50 (OVCAR-3 ovarian) [µM] | GI50 (HCT-15 colon) [µM] | GI50 (SK-OV-3 ovarian) [µM] | GI50 (LOX IMVI melanoma) [µM] | GI50 (NCI-H23 lung) [µM] | GI50 (A549 NSCLC) [µM] | GI50 (UACC-62 melanoma) [µM]
1 | COc1cc(/C=C/C(=O)c2sc(-n3nc(-c4ccccc4)cc3-c3ccccc3)nc2C)ccc1O | > 100 | > 100 | > 100 | > 100 | > 100 | > 100 | > 100 | > 100 | > 100 | – | – | – | – | – | – | – | – | – | –
2 | CCOC(=O)c1nc2ccc(C(F)(F)F)cc2nc1NCc1ccc(Cl)c(Cl)c1 | > 100 | 81.5 | 66.2 | > 100 | > 100 | > 100 | > 100 | > 100 | > 100 | > 100 | – | – | – | – | – | – | – | – | –
3 | COc1cc(Br)c(OC)c2c(OC)cc(C)cc12 | – | > 100 | > 100 | > 100 | > 100 | > 100 | > 100 | – | > 100 | > 100 | – | – | – | – | – | – | – | – | –
4 | CC1(C)C(=O)N(O)C(C)(C)N1O | > 10 | > 10 | > 10 | > 10 | > 10 | > 10 | > 10 | > 10 | > 10 | > 10 | – | – | – | – | – | – | – | – | –
5 | CC1=NC(=O)C(C)(c2ccccc2)N1CCc1ccccc1 (configuration not stated) | > 100 | > 100 | > 100 | > 100 | > 100 | > 100 | > 100 | > 100 | > 100 | > 100 | – | – | – | – | – | – | – | – | –
6 | Cc1nn2c(=O)c([N+](=O)[O-])c(/C=C/c3ccccc3)nc2s1 | > 29.8 | 7.32 | 26.5 | 12.3 | > 40.5 | 3.98 | > 100 | > 79.1 | 26.9 | 8.86 | – | – | – | – | – | – | – | – | –
7 | COc1ccc(/C=C(\Cl)c2ccc(OC)c(OC)c2)cc1OC | > 100 | > 100 | > 100 | > 100 | > 100 | > 100 | > 100 | > 100 | > 100 | > 100 | – | – | – | – | – | – | – | – | –
8 | COc1ccc(/C=C2/C(C)=NN(c3cccc(Cl)c3)/C2=N/c2nc3ccccc3s2)cc1 | 83.1 | 26.8 | 48.8 | 36.1 | 63.7 | 33.4 | 34.6 | – | – | 84.4 | – | – | – | – | – | – | – | – | –
9 | Cc1occc1C(=S)Nc1ccc(Cl)c(C(=O)OCC(F)(F)F)c1 | 64.2 | – | 81.4 | 45.3 | 51.2 | 34.7 | 51.4 | 58.4 | 32 | 43 | – | – | – | – | – | – | – | – | –
10 | c1ccc(Nc2nnc(CSc3nc(-c4ccccc4)c(-c4ccccc4)[nH]3)s2)cc1 | 51.5 | – | 26.7 | 49.9 | 56 | 31.8 | 45.1 | 73.3 | – | – | – | – | – | – | – | – | – | – | –
11 | C[C@H]1[C@H](C)N(Cc2ccccc2)P(=O)(C(O)/C=C/c2ccccc2)N1Cc1ccccc1 (some centres not stated) | 24.9 | 15.6 | – | > 25 | > 25 | 14.5 | > 25 | > 25 | 8.13 | > 25 | – | – | – | – | – | – | – | – | –
12 | CCOC(=O)c1cc(Sc2ccc(N)c(C(=O)OCC)c2)ccc1N | > 100 | > 100 | > 100 | > 100 | > 100 | – | > 100 | > 100 | > 100 | > 100 | – | – | – | – | – | – | – | – | –
13 | COC(=O)CNC(=O)C(C)NC(=O)C(CC(=O)OCc1ccccc1)NC(=O)OCc1ccccc1 (stereo not drawn) (Cbz-Asp(OBn)-Ala-Gly-OMe; configuration not given here) | – | 68.6 | > 100 | > 100 | > 100 | – | > 100 | > 100 | > 100 | > 100 | – | – | – | – | – | – | – | – | –
14 | COc1ccc2c(c1)CC[C@@H]1[C@@H]2CC[C@]2(C)C(=O)C3(CCCCC3)C[C@@H]12 | > 100 | > 100 | > 100 | > 100 | > 100 | > 100 | > 100 | > 100 | > 100 | – | > 100 | > 100 | > 100 | > 100 | > 100 | > 100 | > 100 | > 100 | > 100
15 | NC1CC(=O)c2cc(Cl)sc21 (configuration not stated) | > 100 | > 100 | > 100 | > 100 | > 100 | > 100 | > 100 | > 100 | > 100 | – | – | – | – | – | – | – | – | – | –
16 | CCOC(=O)CSc1ccnc(=O)[nH]1 | > 100 | > 100 | > 100 | > 100 | > 100 | > 100 | – | > 100 | > 100 | – | – | – | – | – | – | – | – | – | –
17 | O=C(O)c1c[nH]c2c(Sc3ccccc3)nccc2c1=O | > 100 | – | > 100 | > 100 | > 100 | > 100 | > 100 | > 100 | > 100 | > 100 | – | – | – | – | – | – | – | – | –
18 | CN(C(=O)C12C3C4C1C1C2C3C41I)C(C)(C)C (configuration not stated) | > 100 | – | > 100 | > 100 | > 100 | > 100 | > 100 | > 100 | > 100 | – | – | – | – | – | – | – | – | – | –
19 | O=c1[nH]c(=O)n(C2OC(CO)C(O)C(F)C2O)cc1F (configuration not stated) | – | – | > 100 | > 100 | > 100 | > 100 | > 100 | > 100 | > 100 | > 100 | – | – | – | – | – | – | – | – | –
20 | CCCCCCn1c(SCC)c2ccccc2c1-c1nc(F)nc(F)n1 | > 100 | > 100 | > 100 | > 100 | > 100 | > 100 | > 100 | > 100 | – | – | – | – | – | – | – | – | – | – | –
21 | COc1ccccc1C1CC(=O)CC(c2ccccc2OC)C12C(=O)NC(=S)NC2=O (configuration not stated) | > 100 | > 100 | > 100 | > 100 | – | > 100 | > 100 | – | > 100 | > 100 | – | – | – | – | – | – | – | – | –
22 | COc1cc2c(/C=C3/C(=O)Nc4ccc(Cl)cc43)c(Cl)n(Cc3ccccc3)c2cc1C | – | 5.18 | 4.83 | 17.8 | 4.41 | > 100 | 7.46 | > 100 | 10.3 | > 100 | – | – | – | – | – | – | – | – | –
